Experimental findings from PubChem BioAssay (NCI) are described below.

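Five concentrations, 48 hours, 96-well plates. GI50: concentration for 50% inhibition of growth. TGI marks complete inhibition of growth.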

One assay deals with KM12 colon. Kind of assay: NCI anticancer screen, dose series, 48 h.
The compound `C=CCNC(=S)/N=C/c1c(O)c2ccccc2oc1=O` returned a TGI of more than 100 µM.

In turn, `O=C(CCCN1CCC2(CC1)CC(=O)N(N1CCOCC1)C2=O)c1ccccc1` gave a TGI of more than 100 µM.

Take `CC(=O)N(C(C)=O)C1=C2c3ccccc3N(S(=O)(=O)c3ccccc3)C2n2c(=O)n(-c3ccccc3)c(=O)n2C1` (stereo not given): the TGI is more than 100 µM.

`Cc1ccccc1C(O)(c1nccn1C)c1nccn1C` showed a TGI of more than 100 µM.

Consider `O=C(NC(Cc1ccc(I)cc1)C(=O)O)c1ccc(I)cc1` (stereo not given), for which the TGI was more than 100 µM.

Regarding `O=[N+]([O-])/C(C(Cl)=C(Cl)Cl)=C(\Nc1cccc2cccnc12)SCc1ccccc1`, the TGI turned out to be 50.4 µM.

`CCCCC1c2c([nH]c3ccccc23)C2C(=O)N(c3ccc(OC)cc3)C(=O)C2C1CCC` (stereo not given) gave a TGI of 5.65 µM.

Take `COc1ccc(C#CC(=O)O)c(OC)c1`: the TGI was more than 100 µM.

Regarding `CSc1cc(Cl)c(C)cc1S(=O)(=O)NC(=O)NNc1ccc(Cl)cc1`, the TGI is more than 100 µM.

Turning to `O=c1c2ccccc2nc2[nH][nH]c(=S)n12`, the TGI is more than 100 µM.

On to `O=S(=O)(O)c1cc2ccc1/C=C\c1ccc(cc1S(=O)(=O)O)N=Nc1ccc(c(S(=O)(=O)O)c1)/C=C\c1ccc(cc1S(=O)(=O)O)N=N2`, for which the TGI was more than 100 µM.

Compound `COc1ccc(CC(O)CN2CCOCC2)cc1` (stereo not given) showed a TGI of more than 100 µM.

For `N#C/C(=C\c1cc(Br)c(O)c(Br)c1)c1cccnc1`, the TGI was more than 100 µM.

In the next assay the test system is MCF7 breast. Kind of assay: NCI anticancer screen, dose series, 48 h.
`CS(=O)(=O)OCCn1c(=O)n(CCOS(C)(=O)=O)c(=O)n(CCOS(C)(=O)=O)c1=O` returned a TGI of more than 100 µM.

`c1ccc2c(c1)NC(C1OC3CCCN3C1C1Nc3ccccc3S1)S2` (stereo not given) displayed a TGI of more than 100 µM.

In the case of `CC(C)(C)NC(=O)/C(=C\Sc1ccccc1)c1ccc2c(c1)OCO2`, the TGI came to 60.6 µM.

`COc1nc(C#CCC(C)O)nc(OC)n1` (stereo not given) gave a TGI of 33.5 µM.

For `Cc1c2c(n(CCc3ccc(Cl)cc3)c1C)NN=C(C#N)S2(=O)=O`, the TGI is more than 100 µM.

The compound `CC12CC(=O)C3C(C(=O)C1)C32C` (stereo not given) showed a TGI of more than 100 µM.

Regarding `COc1cc([N+](=O)[O-])c(OC)cc1-c1nc2sc(Cl)cn2c1/C=N/Nc1ccccn1`, the GI50 is 11.1 µM and the TGI was determined as 32 µM.

In turn, `CC(=O)N/N=C1\NC(=O)C[C@H]2[C@@H]3CC=C4C[C@@H](OC(C)=O)CC[C@]4(C)[C@H]3CC[C@]12C` displayed a TGI of more than 100 µM.

Take `C=C[C@@H]1C(CO)=CCC2[C@H]1CCC1C(C)(C)C(=O)CC[C@]21C` (stereo not given in full): the TGI was more than 100 µM.

Turning to `C/C(CC1C2CCCC1C2)=N\NC(N)=O` (stereo not given), the TGI is more than 100 µM.

For the compound `N#CC(C#N)=CNC(=S)c1ccncc1`, the TGI was more than 100 µM.

In turn, `O=C(CCCN1CCC2(CC1)CC(=O)N(N1CCOCC1)C2=O)c1ccccc1` displayed a TGI of more than 100 µM.

For `Cc1ccccc1C(O)(c1nccn1C)c1nccn1C`, the TGI is more than 100 µM.

Compound `O=C(NC(Cc1ccc(I)cc1)C(=O)O)c1ccc(I)cc1` (stereo not given) yielded a TGI of more than 100 µM.

On to `O=[N+]([O-])/C(C(Cl)=C(Cl)Cl)=C(\Nc1cccc2cccnc12)SCc1ccccc1`, for which the TGI was found to be 36.5 µM.

Turning to `COc1ccc(C#CC(=O)O)c(OC)c1`, the TGI was more than 100 µM.

Compound `CSc1cc(Cl)c(C)cc1S(=O)(=O)NC(=O)NNc1ccc(Cl)cc1` gave a TGI of more than 100 µM.

As for `O=c1c2ccccc2nc2[nH][nH]c(=S)n12`, the TGI is more than 100 µM.

As to `O=S(=O)(O)c1cc2ccc1/C=C\c1ccc(cc1S(=O)(=O)O)N=Nc1ccc(c(S(=O)(=O)O)c1)/C=C\c1ccc(cc1S(=O)(=O)O)N=N2`, the TGI was more than 100 µM.

`N#C/C(=C\c1cc(Br)c(O)c(Br)c1)c1cccnc1` returned a TGI of more than 100 µM.

Another assay concerns MDA-MB-231 breast. Nature of the assay: NCI anticancer screen, dose series, 48 h.
`CS(=O)(=O)OCCn1c(=O)n(CCOS(C)(=O)=O)c(=O)n(CCOS(C)(=O)=O)c1=O` came in with a TGI of more than 100 µM.

`CC(C)(C)NC(=O)/C(=C\Sc1ccccc1)c1ccc2c(c1)OCO2` returned a TGI of 52.8 µM.

For `COc1nc(C#CCC(C)O)nc(OC)n1` (stereo not given), the TGI stood at 52 µM.

The compound `Cc1c2c(n(CCc3ccc(Cl)cc3)c1C)NN=C(C#N)S2(=O)=O` showed a TGI of more than 100 µM.

`COc1ccc2cc(-c3ccc(-c4ccc(C(=N)N)s4)s3)ccc2c1`: the GI50 is 2.46 µM and the TGI turned out to be 5.42 µM.

With `CC12CC(=O)C3C(C(=O)C1)C32C` (stereo not given), the TGI was more than 100 µM.

As for `COc1cc([N+](=O)[O-])c(OC)cc1-c1nc2sc(Cl)cn2c1/C=N/Nc1ccccn1`, the GI50 was 8.61 µM and the TGI came out at 30.7 µM.

`CC(=O)N/N=C1\NC(=O)C[C@H]2[C@@H]3CC=C4C[C@@H](OC(C)=O)CC[C@]4(C)[C@H]3CC[C@]12C` returned a TGI of 39.3 µM.

Take `C/C(CC1C2CCCC1C2)=N\NC(N)=O` (stereo not given): the TGI is more than 100 µM.

The compound `c1ccc2sc(SCSc3nc4ccccc4s3)nc2c1` came in with a TGI of more than 100 µM.

On to `N#CC(C#N)=CNC(=S)c1ccncc1`, for which the TGI is more than 100 µM.

`O=C(CCCN1CCC2(CC1)CC(=O)N(N1CCOCC1)C2=O)c1ccccc1` registered a TGI of more than 100 µM.

`O=[N+]([O-])/C(C(Cl)=C(Cl)Cl)=C(\Nc1cccc2cccnc12)SCc1ccccc1` yielded a TGI of more than 100 µM.

Take `CCCCC1c2c([nH]c3ccccc23)C2C(=O)N(c3ccc(OC)cc3)C(=O)C2C1CCC` (stereo not given): the TGI is more than 10 µM.

The compound `COc1ccc(C#CC(=O)O)c(OC)c1` came in with a TGI of more than 100 µM.

For the compound `CSc1cc(Cl)c(C)cc1S(=O)(=O)NC(=O)NNc1ccc(Cl)cc1`, the TGI was more than 100 µM.

`O=c1c2ccccc2nc2[nH][nH]c(=S)n12`: the TGI is more than 100 µM.

`COc1ccc(CC(O)CN2CCOCC2)cc1` (stereo not given): the TGI is more than 100 µM.

Another assay has as its system NCI-H226 lung. Nature of the assay: NCI anticancer screen, dose series, 48 h.
`CS(=O)(=O)OCCn1c(=O)n(CCOS(C)(=O)=O)c(=O)n(CCOS(C)(=O)=O)c1=O` had a TGI of more than 100 µM.

For `CC(=O)O[C@]12CCCCCC1C1(O)C(O)CCC[C@H]12` (stereo not given in full), the TGI was more than 100 µM.

As to `COCOc1ccc(Cn2c(=O)n(C)c(=O)c3c2ncn3C)cc1[N+](=O)[O-]`, the TGI is more than 100 µM.

Regarding `Cc1c2c(n(CCc3ccc(Cl)cc3)c1C)NN=C(C#N)S2(=O)=O`, the TGI is more than 100 µM.

Turning to `COc1ccc2cc(-c3ccc(-c4ccc(C(=N)N)s4)s3)ccc2c1`, the GI50 was 23.6 µM and the TGI came out at 59.3 µM.

With `Cc1cc(=O)c2c([nH]1)NS(=O)(=O)NC2=O`, the TGI was more than 100 µM.

`CC12CC(=O)C3C(C(=O)C1)C32C` (stereo not given) showed a TGI of more than 100 µM.

Consider `COc1cc([N+](=O)[O-])c(OC)cc1-c1nc2sc(Cl)cn2c1/C=N/Nc1ccccn1`, for which the GI50 was 12.1 µM and the TGI came out at 48.8 µM.

The compound `CC(=O)N/N=C1\NC(=O)C[C@H]2[C@@H]3CC=C4C[C@@H](OC(C)=O)CC[C@]4(C)[C@H]3CC[C@]12C` came in with a TGI of 54.6 µM.
